Data taken from US9573961B2, “Inhibitors of the renal outer medullary potassium channel” (Merck Sharp & Dohme Corp., priority 2012, dated 2017).
Where two headings read alike, the source gives them in different places.

Experiments:
hROMK (hKir1.1) = hROMK (hKir1.1) (Homo sapiens (Human), UniProt P48048); test: Thallium Flux Assay (ROMK channel functional thallium flux, FLIPR-Tetra); assay type: cell-based; conditions: read-out: Thallium Flux IC50
Description: Cell Culture Conditions—HEK293 cells stably expressing hROMK (hKir1.1) were grown at 37° C. in a 10% CO2 humidified incubator in complete growth media: Dulbecco's Modified Eagle Medium supplemented with non-essential amino acids, Penicillin/Streptomycin/Glutamine, G418 and FBS. At >80% confluency, aspirate the media from the flask and rinse with 10 mL Calcium/Magnesium-free PBS. […] To dislodge the cell, gently bang the side of the flask with your hand. Triturate the cells completely and then transfer the cells to 25 mL complete media. Centrifuge at 1,500 rpm for 6 min followed by resuspension in complete growth media and determine cell concentration. […] Under ideal growth conditions and appropriate tissue culture practices, this cell line is stable for 40-45 passages.
FluxOR Kit Components (Invitrogen F10017) • FluxOR™ Reagent (Component A) • FluxOR™ Assay Buffer (Component B)—10× Concentrate • PowerLoad™ Concentrate (Component C)—100× Concentrate • Probenecid (Component D)—Lyophilized sample is kept at −20° C. Water soluble, 100× after solubilization in 1 mL water. […] Store at 4° C. • Thallium sulfate (Tl2SO4) Concentrate (Component G)—50 mM in water. Store at 4° C. • DMSO (dimethyl sulfoxide, Component H)—1 mL (100%)
Can be stored at room temperature • Stimulant Buffer (prepared at 5× final concentration in 1× FluxOR™ Chloride-Free Buffer): 7.5 mM Thallium sulfate and 0.75 mM Potassium sulfate (to give a final assay concentration of 3 mM Thallium/0.3 mM Potassium). Store at 4° C. when not in use. If kept sterile, this solution is good for months.
Assay Protocol—The ROMK channel functional thallium flux assay is performed in 384 wells, using the FLIPR-Tetra instrument. HEK-hKir1.1 cells are seeded in Poly-D-Lysine microplates and kept in a 37° C.-10% CO2 incubator overnight. On the day of the experiment, the growth media is replaced with the FluxOR™ reagent loading buffer and incubated, protected from light, at ambient temperature (23-25° C.) for 90 min. The loading buffer is replaced with assay buffer±test compound followed by 30 min incubation at ambient temperature, where the Thallium/Potassium stimulant is added to the microplate.
Step Protocol • 1. Seed HEK-hKir1.1 cells (50 μl at 20,000 cells/well) in 384-well PDL coated Microplates • 2. Allow cells to adhere overnight in humidified 37° C./10% CO2 incubator • 3. Completely remove cell growth media from microplate and replace with 25 μl loading buffer • 4. Incubate Microplate at room temperature, protected form light, for 90 min • 5. Remove loading buffer and replace with 25 μl 1× Assay Buffer±test compound. • 6. Incubate microplate at room temperature, protected from light, for 30 min • 7. […] Excitation=400 nm, Emission=460 & 580 nm. Collect data for ˜10 min.
Data Calculation—The fluorescence intensity of wells containing 3 μM of a standard control ROMK inhibitor of the present invention is used to define the ROMK-sensitive component of thallium flux. Fluorescence in the presence of test compounds is normalized to control values to provide % fluorescence change.

Kir1.1 (ROMK1) = Kir1.1 (ROMK1) (Homo sapiens (Human), UniProt P48048); test: Electrophysiology Assay (whole cell voltage clamp, IonWorks Quattro); assay type: cell-based; conditions: block during voltage step to 0 mV
Sequence of Kir1.1 (ROMK1) (P48048 whole entry): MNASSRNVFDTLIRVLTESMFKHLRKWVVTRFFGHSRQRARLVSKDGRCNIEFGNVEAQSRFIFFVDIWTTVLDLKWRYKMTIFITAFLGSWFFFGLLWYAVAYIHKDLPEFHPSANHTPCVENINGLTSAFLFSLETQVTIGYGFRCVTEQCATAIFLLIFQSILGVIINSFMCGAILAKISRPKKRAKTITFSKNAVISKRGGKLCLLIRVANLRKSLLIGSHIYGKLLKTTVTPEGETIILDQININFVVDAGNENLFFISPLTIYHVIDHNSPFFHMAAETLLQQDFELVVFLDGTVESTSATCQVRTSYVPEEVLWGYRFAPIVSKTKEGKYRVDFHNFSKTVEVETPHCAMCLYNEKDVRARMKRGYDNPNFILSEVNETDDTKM
Description: Chinese hamster ovary cells stably expressing Kir1.1 channels were maintained in T-75 flasks in cell culture media in a humidified 10% CO2 incubator at 37° C. Prior to an experiment, Kir1.1 expression was induced by overnight incubation with 1 mM sodium butyrate. […] After centrifugation, the cell pellet was resuspended in approximately 4.0 mL of bath solution and placed in the IonWorks instrument. The intracellular solution consisted of (in mM): 80 K gluconate, 40 KCl, 20 KF, 3.2 MgCl2, 3 EGTA, 5 Hepes, pH 7.4. Electrical access to the cytoplasm was achieved by perforation in 0.13 mg/mL amphotericin B for 4 min. […] Voltage protocols and current recordings were performed using the IonWorks HT software/hardware system. Currents were sampled at 1 kHz. No correction for liquid junction potentials was used. The test pulse, consisting of a 100 ms step to 0 mV from a holding potential of −70 mV, followed by a 100 ms voltage ramp from −70 mV to +70 mV, was applied before and after a 6 min compound incubation period. Test compounds were prepared by diluting DMSO stock solutions into the bath solution at 3× the final concentration and placed in the instrument in 96-well polypropylene plates. Current amplitudes were measured using the IonWorks software.

[1] = HEK293 cells stably expressing hROMK (hKir1.1)
[2] = Electrophysiology IC50, Chinese hamster ovary cells stably expressing Kir1.1
[3] = Chinese hamster ovary cells stably expressing Kir1.1, read-out: Electrophysiology IC50

Sequence of hROMK (hKir1.1) (P48048 whole entry): as above

| SMILES | IC50 (hROMK (hKir1.1); [1]) [µM] | IC50 (Kir1.1 (ROMK1); [2]) [µM] | IC50 (hROMK (hKir1.1)) [µM] | IC50 (Kir1.1 (ROMK1); [3]) [µM] |
| --- | --- | --- | --- | --- |
| COc1cc([C@H]2CN3CCN(C(=O)Cc4ccc(-n5cnnn5)cc4)C[C@@H]3CO2)ccc1C#N [Example 18, 2-methoxy-4-[(3S,9aR)-8-{[4-(1H-tetrazol-1-yl)phenyl]acetyl}octahydropyrazino[2,1-c][1,4]oxazin-3-yl]benzonitrile] | 0.25 | 0.11 |  |  |
| COc1cc([C@@H]2CN3CCN(C(=O)Cc4ccc(-n5cnnn5)cc4)C[C@@H]3CO2)ccc1C#N [Example 19, 2-methoxy-4-[(3R,9aR)-8-{[4-(1H-tetrazol-1-yl)phenyl]acetyl}octahydropyrazino[2,1-c][1,4]oxazin-3-yl]benzonitrile] | 0.17 | 0.07 |  |  |
| O=C1OCc2c1ccc([C@@H]1CN3CCN(C(=O)Cc4ccc(-n5cnnn5)cc4)C[C@H]3CO1)c2Cl [Example 20, 4-chloro-5-[(3R,9aS)-8-{[4-(1H-tetrazol-1-yl)phenyl]acetyl}octahydropyrazino[2,1-c][1,4]oxazin-3-yl]-2-benzofuran-1(3H)-one] | 0.58 | 0.06 |  |  |
| O=C1OCc2c1ccc([C@H]1CN3CCN(C(=O)Cc4ccc(-n5cnnn5)cc4)C[C@H]3CO1)c2Cl [Example 21, 4-chloro-5-[(3S,9aS)-8-{[4-(1H-tetrazol-1-yl)phenyl]acetyl}octahydropyrazino[2,1-c][1,4]oxazin-3-yl]-2-benzofuran-1(3H)-one] | 0.1 | 0.1 |  |  |
| Cc1c([C@H]2CN3CCN(C(=O)Cc4ccc5c(c4)COC5=O)C[C@H]3CO2)ccc(F)c1C#N [Example 23, 6-fluoro-2-methyl-3-{(3S,9aS)-8-[(1-oxo-1,3-dihydro-2-benzofuran-5-yl)acetyl]octahydropyrazino[2,1-c][1,4]oxazin-3-yl}benzonitrile] |  | 0.07 | 0.07 |  |
| Cc1c([C@@H]2CN3CCN(C(=O)Cc4ccc5c(c4)COC5=O)C[C@H]3CO2)ccc(F)c1C#N [Example 24, 6-fluoro-2-methyl-3-{(3R,9aS)-8-[(1-oxo-1,3-dihydro-2-benzofuran-5-yl)acetyl]octahydropyrazino[2,1-c][1,4]oxazin-3-yl}benzonitrile] |  | 0.08 | 0.06 |  |
| COc1ccc([C@@H]2CN3CCN(C(=O)Cc4ccc(-n5cnnn5)cc4)C[C@H]3CO2)c(F)c1C#N [Example 25, 2-fluoro-6-methoxy-3-[(3R,9aS)-8-{[4-(1H-tetrazol-1-yl)phenyl]acetyl}octahydropyrazino[2,1-c][1,4]oxazin-3-yl]benzonitrile] | 0.15 |  |  | 0.2 |
| COc1ccc([C@@H]2CN3CCN(C(=O)Cc4ccc(-n5cnnn5)cc4)C[C@H]3CO2)c(C)c1C#N [Example 26, 6-methoxy-2-methyl-3-[(3R,9aS)-8-{[4-(1H-tetrazol-1-yl)phenyl]acetyl}octahydropyrazino[2,1-c][1,4]oxazin-3-yl]benzonitrile] | 0.14 |  |  | 0.26 |
| COc1cc(F)c([C@@H]2CN3CCN(C(=O)Cc4ccc(-n5cnnn5)cc4)C[C@H]3CO2)cc1C#N [Example 27, 4-fluoro-2-methoxy-5-[(3R,9aS)-8-{[4-(1H-tetrazol-1-yl)phenyl]acetyl}octahydropyrazino[2,1-c][1,4]oxazin-3-yl]benzonitrile] | 0.18 | 0.39 |  |  |
| COc1cc(CC(=O)N2CCN3C[C@H](c4ccc5c(c4)CCOC5=O)OC[C@H]3C2)ccc1C#N [Example 28, 2-methoxy-4-{2-oxo-2-[(3S,9aR)-3-(1-oxo-3,4-dihydro-1H-isochromen-6-yl)hexahydropyrazino[2,1-c][1,4]oxazin-8(1H)-yl]ethyl}benzonitrile] | 0.33 | 0.13 |  |  |
| COc1cc(CC(=O)N2CCN3C[C@@H](c4ccc5c(c4)CCOC5=O)OC[C@@H]3C2)ccc1C#N [Example 29, 2-methoxy-4-{2-oxo-2-[(3R,9aS)-3-(1-oxo-3,4-dihydro-1H-isochromen-6-yl)hexahydropyrazino[2,1-c][1,4]oxazin-8(1H)-yl]ethyl}benzonitrile] | 0.3 | 0.13 |  |  |
| COc1cc(CC(=O)N2CCN3C[C@@H](c4ccc5c(c4)CCOC5=O)OC[C@@H]3C2)c(F)cc1C#N [Example 30, 5-fluoro-2-methoxy-4-{2-oxo-2-[(3R,9aS)-3-(1-oxo-3,4-dihydro-1H-isochromen-6-yl)hexahydropyrazino[2,1-c][1,4]oxazin-8(1H)-yl]ethyl}benzonitrile] | 0.1 | 0.11 |  |  |
| COc1cc(CC(=O)N2CCN3C[C@H](c4ccc5c(c4)CCOC5=O)OC[C@H]3C2)c(F)cc1C#N [Example 31, 5-fluoro-2-methoxy-4-{2-oxo-2-[(3S,9aR)-3-(1-oxo-3,4-dihydro-1H-isochromen-6-yl)hexahydropyrazino[2,1-c][1,4]oxazin-8(1H)-yl]ethyl}benzonitrile] | 0.57 | 0.12 |  |  |
| COc1c([C@@H]2CN3CCN(C(=O)Cc4ccc(-n5cnnn5)cc4)C[C@H]3CO2)ccc(F)c1C#N [Example 32, 6-fluoro-2-methoxy-3-[(3R,9aS)-8-{[4-(1H-tetrazol-1-yl)phenyl]acetyl}octahydropyrazino[2,1-c][1,4]oxazin-3-yl]benzonitrile] |  | 0.14 | 0.1 |  |
| COc1c([C@H]2CN3CCN(C(=O)Cc4ccc(-n5cnnn5)cc4)C[C@H]3CO2)ccc(F)c1C#N [Example 33, 6-fluoro-2-methoxy-3-[(3S,9aS)-8-{[4-(1H-tetrazol-1-yl)phenyl]acetyl}octahydropyrazino[2,1-c][1,4]oxazin-3-yl]benzonitrile] | 0.11 | 0.13 |  |  |
| Cc1c([C@@H]2CN3CCN(C(=O)Cc4ccc(-n5cnnn5)cc4)C[C@H]3CO2)ccc(Cl)c1C#N [Example 34, 6-chloro-2-methyl-3-[(3R,9aS)-8-{[4-(1H-tetrazol-1-yl)phenyl]acetyl}octahydropyrazino[2,1-c][1,4]oxazin-3-yl]benzonitrile] | 0.19 | 0.2 |  |  |
| Cc1c([C@H]2CN3CCN(C(=O)Cc4ccc(-n5cnnn5)cc4)C[C@H]3CO2)ccc(Cl)c1C#N [Example 35, 6-chloro-2-methyl-3-[(3S,9aS)-8-{[4-(1H-tetrazol-1-yl)phenyl]acetyl}octahydropyrazino[2,1-c][1,4]oxazin-3-yl]benzonitrile] | 0.76 | 0.26 |  |  |
| Cc1cc(F)c(C#N)cc1[C@@H]1CN2CCN(C(=O)Cc3ccc(-n4cnnn4)cc3)C[C@H]2CO1 [Example 38, 2-fluoro-4-methyl-5-[(3R,9aS)-8-{[4-(1H-tetrazol-1-yl)phenyl]acetyl}octahydropyrazino[2,1-c][1,4]oxazin-3-yl]benzonitrile] | 0.11 |  |  | 0.18 |
